In assay [1] the target is T1, Ephrin type-A receptor 1 (Homo sapiens) (UniProt P21709).
T1 sequence (whole entry): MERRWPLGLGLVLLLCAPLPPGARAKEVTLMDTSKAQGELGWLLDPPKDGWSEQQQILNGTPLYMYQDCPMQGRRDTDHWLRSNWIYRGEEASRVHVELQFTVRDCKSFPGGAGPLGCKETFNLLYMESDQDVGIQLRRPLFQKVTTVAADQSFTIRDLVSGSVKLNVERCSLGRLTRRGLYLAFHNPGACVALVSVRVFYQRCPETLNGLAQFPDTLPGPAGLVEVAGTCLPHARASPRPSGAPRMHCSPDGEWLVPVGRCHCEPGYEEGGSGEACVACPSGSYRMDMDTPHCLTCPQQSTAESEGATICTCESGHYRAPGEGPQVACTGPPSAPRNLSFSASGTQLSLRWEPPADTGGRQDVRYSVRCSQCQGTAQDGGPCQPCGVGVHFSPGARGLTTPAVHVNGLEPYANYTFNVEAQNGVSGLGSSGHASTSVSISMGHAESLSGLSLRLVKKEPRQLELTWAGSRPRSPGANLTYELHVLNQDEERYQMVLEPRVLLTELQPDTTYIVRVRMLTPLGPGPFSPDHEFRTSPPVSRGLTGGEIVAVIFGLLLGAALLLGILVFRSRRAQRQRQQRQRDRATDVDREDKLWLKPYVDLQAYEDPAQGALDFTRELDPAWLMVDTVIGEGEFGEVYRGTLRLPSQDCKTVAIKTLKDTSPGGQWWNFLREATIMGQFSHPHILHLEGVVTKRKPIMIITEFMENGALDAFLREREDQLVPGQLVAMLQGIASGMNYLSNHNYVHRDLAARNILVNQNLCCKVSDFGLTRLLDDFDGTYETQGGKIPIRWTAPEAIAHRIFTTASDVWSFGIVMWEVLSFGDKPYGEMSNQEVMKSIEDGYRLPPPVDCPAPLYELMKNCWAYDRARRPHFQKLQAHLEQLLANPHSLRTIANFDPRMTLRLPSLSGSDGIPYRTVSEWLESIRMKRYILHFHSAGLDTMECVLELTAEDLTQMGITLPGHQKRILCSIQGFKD
Kind of assay: Inhibition of human recombinant EphA1 at 500 nM in presence of ATP by radiometric assay relative to control.

The target of assay [2] is T2, Serine/threonine-protein kinase Sgk2 (Homo sapiens) (UniProt Q9HBY8).
T2 sequence (whole entry): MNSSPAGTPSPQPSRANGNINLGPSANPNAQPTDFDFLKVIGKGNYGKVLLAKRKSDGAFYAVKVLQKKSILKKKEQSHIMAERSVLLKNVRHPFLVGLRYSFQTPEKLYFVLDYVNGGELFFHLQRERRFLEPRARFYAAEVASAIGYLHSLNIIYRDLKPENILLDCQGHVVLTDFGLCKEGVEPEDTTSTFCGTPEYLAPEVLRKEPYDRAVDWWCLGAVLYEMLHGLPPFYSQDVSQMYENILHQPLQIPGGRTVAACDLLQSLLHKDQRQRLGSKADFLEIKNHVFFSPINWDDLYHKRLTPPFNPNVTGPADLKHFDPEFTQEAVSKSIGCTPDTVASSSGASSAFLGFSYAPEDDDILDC
The assay is described as follows: Inhibition of human recombinant SGK2 at 500 nM related to control ULK1.

In assay [3] the target is TGF-beta receptor type-2 (Homo sapiens) (UniProt P37173). Kind of assay: Inhibition of human recombinant TGFbR2 at 15 nM related to control ULK1.
The target of assay [4] is Mitogen-activated protein kinase 10 (Homo sapiens) (UniProt P53779). Kind of assay: Inhibition of human recombinant JNK3 at 15 nM in presence of ATP by radiometric assay relative to control.
Assay [5] has as its target T3, Serine/threonine-protein kinase Sgk3 (Homo sapiens) (UniProt Q96BR1).
T3 sequence (whole entry): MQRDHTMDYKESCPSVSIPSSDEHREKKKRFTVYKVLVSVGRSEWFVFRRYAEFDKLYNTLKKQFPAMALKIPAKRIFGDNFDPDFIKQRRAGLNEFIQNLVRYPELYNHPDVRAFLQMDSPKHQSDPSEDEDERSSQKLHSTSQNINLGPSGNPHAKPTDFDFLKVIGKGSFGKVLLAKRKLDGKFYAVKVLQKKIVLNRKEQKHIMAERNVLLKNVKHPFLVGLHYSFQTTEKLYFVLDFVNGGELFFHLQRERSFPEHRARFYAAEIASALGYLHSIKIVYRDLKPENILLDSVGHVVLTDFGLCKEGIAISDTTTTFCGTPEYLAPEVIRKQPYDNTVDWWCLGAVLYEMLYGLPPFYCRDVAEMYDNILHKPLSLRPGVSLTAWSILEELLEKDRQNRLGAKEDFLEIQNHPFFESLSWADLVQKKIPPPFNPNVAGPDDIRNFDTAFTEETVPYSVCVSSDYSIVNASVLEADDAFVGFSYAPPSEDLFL
Kind of assay: Inhibition of human recombinant SGK3 at 15 nM in presence of ATP by radiometric assay relative to control.

Sequence of TGF-beta receptor type-2 (Homo sapiens) (P37173 whole entry): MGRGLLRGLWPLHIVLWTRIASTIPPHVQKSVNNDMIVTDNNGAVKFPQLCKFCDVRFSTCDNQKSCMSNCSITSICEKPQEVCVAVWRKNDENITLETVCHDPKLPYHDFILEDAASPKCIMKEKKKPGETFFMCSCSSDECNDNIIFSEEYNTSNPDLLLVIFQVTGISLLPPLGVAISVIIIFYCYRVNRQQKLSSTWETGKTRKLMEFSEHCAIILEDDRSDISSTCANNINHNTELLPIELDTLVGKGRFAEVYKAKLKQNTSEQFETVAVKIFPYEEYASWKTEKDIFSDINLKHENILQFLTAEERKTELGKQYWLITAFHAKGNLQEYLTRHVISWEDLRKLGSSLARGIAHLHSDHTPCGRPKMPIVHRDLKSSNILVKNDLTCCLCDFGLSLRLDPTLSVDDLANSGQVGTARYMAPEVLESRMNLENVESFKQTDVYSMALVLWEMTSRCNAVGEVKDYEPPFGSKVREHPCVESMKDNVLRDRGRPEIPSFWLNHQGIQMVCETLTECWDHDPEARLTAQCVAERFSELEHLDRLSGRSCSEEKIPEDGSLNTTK
Sequence of Mitogen-activated protein kinase 10 (Homo sapiens) (P53779 whole entry): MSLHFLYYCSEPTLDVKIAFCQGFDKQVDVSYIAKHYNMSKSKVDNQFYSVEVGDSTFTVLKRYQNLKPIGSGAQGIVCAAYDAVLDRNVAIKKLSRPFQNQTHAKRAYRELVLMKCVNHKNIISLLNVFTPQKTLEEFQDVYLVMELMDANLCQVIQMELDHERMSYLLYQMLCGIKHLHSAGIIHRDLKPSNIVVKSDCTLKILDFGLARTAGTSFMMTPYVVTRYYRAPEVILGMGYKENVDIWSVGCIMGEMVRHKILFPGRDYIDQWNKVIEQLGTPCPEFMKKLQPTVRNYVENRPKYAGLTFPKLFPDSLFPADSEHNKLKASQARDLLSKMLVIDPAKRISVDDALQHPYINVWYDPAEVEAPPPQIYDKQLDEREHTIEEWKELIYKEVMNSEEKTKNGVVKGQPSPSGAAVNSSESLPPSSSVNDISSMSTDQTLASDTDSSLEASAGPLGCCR

In the case of `CNC(=O)c1ccccc1Oc1nc(Nc2cc(OC)c(OC)c(OC)c2)ncc1Br`, the inhibition in assay [1] was determined as 13%. The fold change (FC) in assay [2] came out at 0.23.
Turning to `CC(C)[C@H](NC(=O)c1cc(-c2cnn3cc(-c4ccc(OCCN5CCCCC5)cc4)cnc23)cs1)C(F)(F)F`, in assay [3], the fold change (FC) was found to be 0.48. The inhibition in assay [4] came to 7%; in assay [5], 4%.

Usually inhibition stands for how much of the control response was suppressed.

The record behind these values is ChEMBL document CHEMBL5653631, “A Potent and Selective ULK1 Inhibitor Suppresses Autophagy and Sensitizes Cancer Cells to Nutrient Stress” (iScience, 2018).
